# Reference: patent US20230263766A1, “CANNABINOID-CONTAINING FORMULATIONS FOR PARKINSONIAN MOVEMENT DISORDERS” (GBS Global BioPharma, Inc., priority 2021, published 2023)
# Assays:
# Cath.a cells = assay: In vitro neuroprotection assay (MPTP/MPP+ cytotoxicity, MTT cell viability); type: cell-based, mouse
# Description: (§1) Cell lines used were from ATCC. Cath.a cells (sp. = mouse, cat# CRL-11179, ATCC, Manassas, Virginia, US), a CNS catecholaminergic cell line, were cultured according to ATCC instructions and were induced to CAD differentiated status by serum deprivation (0.5% FBS culture for 36 h) prior to experiments as described (Qi et al., 1997, Neurosci, 17, 1217-25). PC12 (sp. = rat, ATCC #CRL-1721) were cultured in RPMI 10% FBS. PC12 differentiation used Minimal Essential M medium containing 1% HS and 0.5% FBS, then the cells were treated with 100 ng/ml NGF, 100 ng/ml basic fibroblast growth factor (bFGF), and serum-starved media containing 2 mg/ml BSA for 2 days (Joen et al., 2010. Synapse, 64, pgs 765-72).
# Neuroprotective effects were assessed based on the ability of both individual compounds and mixtures of compounds to protect against neuronal cell death induced by 1-methyl-4-phenylpyridinium (MPP+) in the 1-methyl-4-phenyl-1,2,3,6-tetrahydropyridine (MPTP)-based selective cytotoxicity assay (Arshad et al., 2014, Acta Biochim Biophys Sin (Shanghai), 46, 22-30). MPP+ is an active metabolite of MPTP that is known to cause human Parkinsonism after injection. […] Cell viability was assessed 24 h after exposure to MPP, which is […] after exposure to the tested compound or compound mixture. […]
# zebrafish larvae = assay: Validation of the larval zebrafish OHDA model; type: in vivo
# Description: All compounds were diluted in 100% methanol (MeOH) and experiments were performed in a HEPES buffered E3 (HE3) medium (5 mM NaCl, 0.17 mM KCl, 0.33 mM CaCl2-2H2O, 0.33 mM MgSO4-7H2O, 10 mM HEPES, pH 7.2). Individual 120 hours post fertilization (hpf) larval zebrafish were transferred to a 48-well microtiter plate in 500 µL of HE3 media. Larvae were acclimated for at least one hour in a lighted 28.5° C. incubator (photon flux: 3-5 µmol s-1 m2) prior to experimentation and larval behavior was analyzed using DanioVision larval tracking systems with EthoVisionXT14/15 software (Noldus Information Technology Inc., Virginia, USA). Distance traveled was measured using dynamic subtraction at 28.5° C. over 120 minutes with the first 90 minutes under lighted conditions (15 µmol m-2 s-1), followed by alternating 5-minute dark/light cycles. Each larvae represents an independent measurement. […] 12 larvae were used in each experimental condition, and at least 2 replicates of each concentration were performed.
# Larvae were exposed to varying concentrations of 6-hydroxydopamine (OHDA) from 48-120 hours post fertilization (hpf). 15 dechorionated larvae were transferred in 5 mL of HE3 to each well of a six-well plate. The 5 mL exposure media was replaced daily, and ascorbic acid/saline buffer (used to resuspend OHDA) was used as a vehicle control. Larvae were then loaded into 48-well microtiter plate in 500 µL of HE3 media as described above.
# In addition to distance travelled, activity was measured as a percentage change in pixel density during data acquisition. […] The frequency with which larvae switched between activity states and the cumulative duration of time spent in each activity state was then measured. Metrics were captured in 1 min bins, and the average over 90 minutes was used to calculate each metric in each activity state. For frequency calculations, the number of times larvae switched between activity states (high, moderate, and low) was calculated (termed Total Frequency). The cumulative amount of time spent in the high and moderate activity states combined (termed Cumulative Duration) was averaged over 90 minutes and measured as a percentage.
# [1] = tested on: differentiated PC12 cells; assay: In vitro dopamine-release assay (Dopamine ELISA); type: cell-based, rat; conditions: 10 µM of each compound; 30 mins; normalized to PMA/Ionomycin control; mean +/- SD
# Description: as §1
# In parallel with the neuroprotection assays, cannabinoid and terpene compounds were tested alone and in mixtures to determine their effects on dopamine release from differentiated PC12 cells. PC12 cells were differentiated as in (Joen et al., 2010. Synapse, 64, pgs 765-72; Hu et al., 2018, Int J Mol Med, 41, 195-201). Supernatant samples were collected from 3 replicate wells 30 mins after application of PMA/Ionomycin (positive control) or the indicated compounds, and dopamine was measured in the medium using the Dopamine ELISA Kit #KA1887 from Abnova (Abnova, California, US) according to manufacturer’s instructions. […]
smiles,measurement,setting,value
"CCCCCc1cc(O)c2c(c1)OC(C)(CCC=C(C)C)C=C2 (centres unmarked) [CBC, Cannabichromene]",neuroprotective effect of individual compounds,"Cath.a cells; 10 µM, MPTP/MPP+ induced apoptosis",all of the individual cannabinoids except CBC displayed some neuroprotective effects
"NCCc1cc(O)c(O)cc1O [OHDA, 6-hydroxydopamine]",startle response,zebrafish larvae; 150 µM OHDA,not impacting the startle response
same,maximum response to the light/dark transition (startle response),zebrafish larvae; 225 µM OHDA,non-significant increase in the maximum response to the light/dark transition
same,baseline activity during initial 90-minute period in the light,zebrafish larvae; OHDA exposure 48-120 hpf,concentration-dependent decrease in the baseline activity
same,fraction of time in high activity,zebrafish larvae; OHDA treated larvae,1%
same,fraction of time in moderate activity,zebrafish larvae; OHDA treated larvae,5%
same,fraction of time in the inactive state,zebrafish larvae; OHDA treated larvae,~ 90%
same,reduction in activity state transitions for all three states,zebrafish larvae; OHDA treatment vs untreated,50-60%
"CCCCCc1cc(O)c2c(c1)OC(C)(C)c1ccc(C)cc1-2 [CBN, Cannabinol]",DOPA release,[1],8.1 +/- 0.4%
"C=C(C)[C@@H]1CCC(C)=C[C@H]1c1c(O)cc(CCCCC)cc1O [CBD, Cannabidiol]",DOPA release,[1],6.0 +/- 0.3%
same,"effect of adding a major cannabinoid to MIX-1, MIX-2, MIX-3 on cell survival","Cath.a cells; 10 µM each, equimolar",increased cell survival in all three mixtures
